From patent publication US20240182465A1 (GENFLEET THERAPEUTICS (SHANGHAI) INC., priority 2021, published 2024)

Legend:
[1] = target: T1, HPK1 (Homo sapiens, UniProt Q92918); test: HPK1 kinase activity assay (ADP-Glo); settings: HPK1 Kinase activity IC50 (nM), 1 nM HPK1, 10 μM ATP, 0.1 μg/μL MBP
T1 sequence (Q92918 1-346 limits assumed): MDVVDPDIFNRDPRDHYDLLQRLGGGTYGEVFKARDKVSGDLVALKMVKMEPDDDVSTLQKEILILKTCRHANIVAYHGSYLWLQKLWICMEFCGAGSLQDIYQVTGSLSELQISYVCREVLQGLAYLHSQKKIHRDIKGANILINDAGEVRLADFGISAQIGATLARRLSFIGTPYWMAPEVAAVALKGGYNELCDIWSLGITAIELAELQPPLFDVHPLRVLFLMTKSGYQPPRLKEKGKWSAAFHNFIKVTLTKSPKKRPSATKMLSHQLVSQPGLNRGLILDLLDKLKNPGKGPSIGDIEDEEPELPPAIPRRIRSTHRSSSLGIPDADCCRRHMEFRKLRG
Method: Preparation of buffer: 1× reaction buffer (40 mM Tris-HCl, 20 mM MgCl2, 0.01% Brij35, 50 μM DTT, 0.1 mg/ml BSA) was prepared using sterile water, which was prepared and used on the day of the experiment.
(§1) Preparation of 1000× drug stock plate: a 1000× compound stock plate was prepared. […] The compound stock plate was sealed with a sealing film and stored in a −20° C. refrigerator for later use.
Compound preparation and dosing: the 1000× drug stock plate was taken and melted at room temperature in the dark. Then 5× drug intermediate plate was prepared using reaction buffer and mixed well. 2 μL was transferred from the 5× drug intermediate plate into a 384-well plate, and negative control well and positive control well (in which 2 μL reaction buffer containing 0.5% DMSO was added) were set. Each point was repeated twice.
Preparation and incubation of reaction mixture: HPK1 protein was diluted to a 2.5× working solution with reaction buffer. 4 μL 2.5×HPK1 protein was added to each well containing test compound and positive control well, and 4 μL of reaction buffer without HPK1 protein was added to the negative control well. The obtained mixture was centrifuged at 1000 rpm for 1 min and then incubated in a 20° C. incubator for 15 min. A 2.5× mixed working solution of MBP protein and ATP was prepared with reaction buffer at concentrations of 0.5 μg/μL and 50 PM, respectively. 4 μL of the mixed working solution of MBP and ATP was added to each well, centrifuged at 1000 rpm for 1 min, and then incubated in a 20° C. incubator for 90 min.
ADP-Glo detection and reading plate: 10 μl ADP-Glo was added to each well of the test plate. The resulting mixture was centrifuged at 1000 rpm for 1 min and incubated in a 20° C. incubator for 60 min. Then 10 μL of the final incubation solution was transferred from the test plate to a new 384-well plate. 10 μL of kinase detection reagent was added to each well, centrifuged at 400 g for 1 min, and incubated in a 20° C. incubator for 60 min. Chemiluminescent signals were read by a microplate reader.

[2] = target: HPK1 (Homo sapiens, UniProt Q92918); test: SLP76 phosphorylation assay (intracellular HPK1 inhibitory activity, p-SLP76 Ser376 sandwich ELISA); settings: p-SLP76 IC50(nM), Jurkat, Clone E6-1 cells; 1 h compound pre-incubation, anti-CD3 beads stimulation 20 min; SLP76 phosphorylation at S376
Target sequence in this assay (Q92918 whole entry): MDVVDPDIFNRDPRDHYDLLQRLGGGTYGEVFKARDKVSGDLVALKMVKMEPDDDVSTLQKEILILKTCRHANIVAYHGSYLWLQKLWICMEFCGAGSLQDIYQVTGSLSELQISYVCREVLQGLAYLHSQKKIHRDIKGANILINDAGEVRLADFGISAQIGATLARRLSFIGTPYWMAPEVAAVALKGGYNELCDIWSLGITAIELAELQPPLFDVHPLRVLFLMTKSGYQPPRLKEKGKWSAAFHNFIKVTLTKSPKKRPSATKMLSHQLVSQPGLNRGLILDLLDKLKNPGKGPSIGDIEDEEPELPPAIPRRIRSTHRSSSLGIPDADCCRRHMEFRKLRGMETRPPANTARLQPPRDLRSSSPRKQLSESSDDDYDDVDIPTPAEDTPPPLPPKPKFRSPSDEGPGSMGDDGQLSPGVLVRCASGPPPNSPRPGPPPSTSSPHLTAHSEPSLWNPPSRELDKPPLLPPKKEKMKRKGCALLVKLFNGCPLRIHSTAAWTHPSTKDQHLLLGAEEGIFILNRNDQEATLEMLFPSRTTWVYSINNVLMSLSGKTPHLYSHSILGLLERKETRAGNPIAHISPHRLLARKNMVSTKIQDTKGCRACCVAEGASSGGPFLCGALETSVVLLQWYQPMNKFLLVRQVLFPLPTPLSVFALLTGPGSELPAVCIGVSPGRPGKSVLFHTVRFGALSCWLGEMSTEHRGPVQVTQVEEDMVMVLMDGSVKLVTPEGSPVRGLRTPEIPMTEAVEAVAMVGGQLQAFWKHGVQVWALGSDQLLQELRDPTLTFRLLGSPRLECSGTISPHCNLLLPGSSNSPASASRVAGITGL
Method: Intracellular HPK1 inhibitory activity was tested by the detection of SLP76 phosphorylation at S376.
as §1
Preparation of Beads wash buffer: 0.1 mL FBS and 0.4 mL 0.5 M EDTA (with a final concentration of 2 mM) were added to 100 mL PBS and stored in a 4° C. refrigerator for later use.
100× Protease Inhibitor Cocktail in 1/20 total volume was added and stored on wet ice for later use. The buffer was ready to use.
Cell inoculation and dosing: the 1000× drug stock plate was taken and melted at room temperature in the dark. […] Jurkat cells in the logarithmic growth phase were selected and collected. […] The cells were inoculated into a 96-well plate (the volume was 90 μL per well), and a blank control well (without cells inoculation, and in which 110 μL of medium was added) was set. 10 μL of a drug-containing culture medium (10×) was transferred from the 10× drug intermediate plate into the 96-well cell plate (with a final concentration of 0.1% DMSO), and set a DMSO control group (in which 0.1% DMSO was added to the treated cells), a stimulated control group (in which 10 μL of culture medium was added to treat cells) and an unstimulated group (in which 10 μL of culture medium was added to treat cells). The wells were duplicated, gently patted, mixed, and then placed into a 5% CO2 incubator at 37° C. for 1 h.
Anti-CD3 beads stimulation: Dynabeads anti-human CD3 was taken, shaken, and mixed for 60 s. The required volume of beads was pipetted, and an equal volume or at least 1 mL of washing solution was added to wash once. Fresh complete medium was then added to resuspend and adjust the density of the beads to 4×10^7/mL, and the beads were placed on ice for later use. At the end of drug pre-incubation, the cell culture plate was taken out. 10 μL Dynabeads anti-human CD3 was added to each well to treat the cells, and 10 μL the culture medium was added to the unstimulated group. The cell culture plate was shaken to mix well at 2500 rpm for 10 s, and then placed into a 5% CO2 incubator at 37° C. and continued to culture for 20 min.
Detection of p-SLP76 protein level. PathScan Phospho-SLP-76 (Ser376) Sandwich ELISA Kit was applied to detect p-SLP76 protein level. At the end of the Anti-CD3 beads stimulation, the cell culture plate was removed from the incubator. […] After lysis, the cell culture plate was centrifuged at 4° C., 400×g for 5 min. 25 μL of sample and 75 μL of sample diluent were added to each well, and the plate was placed in a 5% CO2 incubator at 37° C. for 2 h. The subsequent detection steps were carried out following the kit instructions, and the absorbance (OD value) of each well was read at 450 nm by a microplate reader.

Row | IC50 [1] [nM] | IC50 [2] [nM] | Structure (SMILES)
1 | 9.78 | 1060 | Cc1c[nH]c2ncc(-c3cc4c(c(CN5CCCC5)c3)COCC4)cc12 [Compound Z109, 3-methyl-5-(8-(pyrrolidin-1-ylmethyl)isochroman-6-yl)-1H-pyrrolo[2,3-b]pyridine]
2 |  | 2030 | Cc1c[nH]c2ncc(-c3cc4c(c([C@@H]5CCCN5)c3)CN(C(=O)c3cnn(CCO)c3)CC4)cc12 [Compound Z281, (S)-(1-(2-hydroxyethyl)-1H-pyrazol-4-yl)(6-(3-methyl-1H-pyrrolo[2,3-b]pyridin-5-yl)-8-(pyrrolidin-2-yl)-3,4-dihydroisoquinolin-2(1H)-yl)methanone]
3 | 0.91 | 323 | Cc1c[nH]c2ncc(-c3cc4c(c([C@@H]5CCCN5)c3)CCN(C(=O)[C@@](C)(O)C(F)(F)F)C4)cc12 [Compound Z285, (R)-3,3,3-trifluoro-2-hydroxy-2-methyl-1-(7-(3-methyl-1H-pyrrolo[2,3-b]pyridin-5-yl)-5-((S)-pyrrolidin-2-yl)-3,4-dihydroisoquinolin-2(1H)-yl)propan-1-one]
4 | 1.79 | 567 | Cc1c[nH]c2ncc(-c3cc4c(c([C@@H]5CCCN5)c3)CCN(C(=O)C3(O)CC3)C4)cc12 [Compound Z310, (S)-(1-hydroxycyclopropyl)(7-(3-methyl-1H-pyrrolo[2,3-b]pyridin-5-yl)-5-(pyrrolidin-2-yl)-3,4-dihydroisoquinolin-2(1H)-yl)methanone]
5 | 1.54 | 377 | Cc1c[nH]c2ncc(-c3cc4c(c(C5CCCN5)c3)COCC4)cc12 (centres unmarked) [Compound Z97, 3-methyl-5-(8-(pyrrolidin-2-yl)isochroman-6-yl)-1H-pyrrolo[2,3-b]pyridine]
6 | 0.81 | 367 | Cc1c[nH]c2ncc(-c3cc4c(c([C@@H]5CCCN5)c3)CN(C(=O)CC3CCOCC3)CC4)cc12 [Compound Z218, (S)-1-(6-(3-methyl-1H-pyrrolo[2,3-b]pyridin-5-yl)-8-(pyrrolidin-2-yl)-3,4-dihydroisoquinolin-2(1H)-yl)-2-(tetrahydro-2H-pyran-4-yl)ethanone]
7 |  | 239 | Nc1ncc(-c2cc3c(c([C@@H]4CCCN4)c2)COCC3)cc1-c1nncs1 [Compound Z239, 5-[8-[(S)-pyrrolidin-2-yl]isochroman-6-yl]-3-(1,3,4-thiadiazol-2-yl)pyridin-2-amine]
8 | 0.22 | 92.9 | Cc1c[nH]c2ncc(-c3cc4c(c([C@@H]5CCCN5)c3)CN(C(=O)N3CCOC(C)(C)C3)CC4)cc12 [Compound Z362, (S)-(2,2-dimethylmorpholine)(6-(3-methyl-1H-pyrrolo[2,3-b]pyridin-5-yl)-8-(pyrrolidin-2-yl)-3,4-dihydroisoquinolin-2(1H)-yl)methanone]
9 | 0.29 | 225 | Cc1c[nH]c2ncc(-c3cc4c(c([C@@H]5CCCN5)c3)CN(c3ccncn3)CC4)cc12 [Compound Z315, (S)-6-(3-methyl-1H-pyrrolo[2,3-b]pyridin-5-yl)-2-(pyrimidin-4-yl)-8-(pyrrolidin-2-yl)-1,2,3,4-tetrahydroisoquinoline]
10 | 1.04 | 438 | C=C1COCc2c(cc(-c3cnc4[nH]cc(C)c4c3)cc2[C@@H]2CCCN2)C1 [Compound Z230, (S)-3-methyl-5-(4-methylene-9-(pyrrolidin-2-yl)-1,3,4,5-tetrahydrobenzo[c]oxepin-7-yl)-1H-pyrrolo[2,3-b]pyridine]
11 | 0.53 | 133 | Cc1c[nH]c2ncc(-c3cc4c(c([C@@H]5CCCN5)c3)COCC4)nc12 [Compound Z106, (S)-7-methyl-2-(8-(pyrrolidin-2-yl)isochroman-6-yl)-5H-pyrrolo[2,3-b]pyrazine]
12 |  | 319 | Cc1cn(C2CC2)nc1C(=O)N1CCc2cc(-c3cnc4[nH]cc(C)c4c3)cc([C@@H]3CCCN3)c2C1 [Compound Z347, (S)-(1-cyclopropyl-4-methyl-1H-pyrazol-3-yl)-[6-(3-methyl-1H-pyrrolo[2,3-b]pyridin-5-yl)-8-[pyrrolidin-2-yl]-3,4-dihydro-1H-isoquinolin-2-yl]methanone]
13 |  | 3.3 | Cc1c[nH]c2ncc(-c3cc4c(c([C@@H]5CCCN5)c3)CN(C(=O)Nc3cn[nH]c3)C4)cc12 [Compound Z385]
14 |  | 271 | Cc1cn(C2CC2)nc1C(=O)N1CCc2cc(-c3cnc4[nH]cc(C)c4c3)cc([C@@H]3CCCN3)c2C1 [Compound Z342, (S)-(1-cyclopropyl-4-methyl-1H-pyrazol-3-yl)-[6-(3-methyl-1H-pyrrolo[2,3-b]pyridin-5-yl)-8-[pyrrolidin-2-yl]-3,4-dihydro-2(1H)-isoquinolin-yl]methanone]
15 | 2.28 |  | Cc1c[nH]c2ncc(-c3cc4c(c([C@@H]5CC6(CC6)CN5)c3)COCC4)cc12 [Compound Z240]
16 | 257 |  | Cc1c[nH]c2ncc(-c3cc4c(c(CN5CCOCC5)c3)COCC4)cc12 [Compound Z115, 4-((6-(3-methyl-1H-pyrrolo[2,3-b]pyridin-5-yl)isochroman-8-yl)methyl)morpholine]
17 | 168 |  | Cc1c[nH]c2ncc(-c3cc4c(c([C@@H]5CCCN5)c3)CN(c3ccccn3)CC4)cc12 [Compound Z128, (S)-6-(3-methyl-1H-pyrrolo[2,3-b]pyridin-5-yl)-2-(pyridin-2-yl)-8-(pyrrolidin-2-yl)-1,2,3,4-tetrahydroisoquinoline]

Second part, the compound before the results:

Row | Structure (SMILES) | IC50 [1] [nM] | IC50 [2] [nM]
18 | Cc1c[nH]c2ncc(-c3cc4c(c([C@@H]5CCCN5)c3)CN(C(=O)N3CCOC[C@H]3C)CC4)cc12 [Compound Z358-2, (6-(3-methyl-1H-pyrrolo[2,3-b]pyridin-5-yl)-8-((S)-pyrrolidin-2-yl)-3,4-dihydroisoquinolin-2(1H)-yl) ((R)-3-methylmorpholin)methanone] | 0.23 | 53.2
19 | CC(=O)N1CCc2cc(-c3cnc4[nH]cc(C)c4c3)cc([C@@H]3CCCN3)c2C1 (single isomer, unassigned) [Compound Z98-2] | 0.5 | 152
20 | CC(=O)N1CCc2cc(-c3cnc4[nH]cc(C)c4c3)cc([C@@H]3COCCN3)c2C1 (single isomer, unassigned) [Compound Z119-1] | 1.06 | 390
21 | CC(=O)N1CCc2cc(-c3cnc4[nH]cc(C)c4c3)cc([C@H]3COCCN3)c2C1 (single isomer, unassigned) [Compound Z119-2] | 90 | 
22 | Cc1ncc(N2CCc3c(cc(-c4cnc5[nH]cc(C)c5c4)cc3[C@@H]3CCCN3)C2)s1 [Compound Z38-1, (S)-7-(3-methyl-1H-pyrrolo[2,3-b]pyridin-5-yl)-2-(2-methylthiazol-5-yl)-5-(pyrrolidin-2-yl)-1,2,3,4-tetrahydroisoquinoline] | 2.97 | 719
23 | Nc1ncc(-c2cc3c(c([C@H]4CCCN4)c2)COCC3)cc1-c1cn[nH]c1 (single isomer, unassigned) [Compound Z93-1] | 163 | 
24 | N#CCc1c[nH]c2ncc(-c3cc4c(c([C@H]5CCCN5)c3)COCC4)cc12 (single isomer, unassigned) [Compound Z101-1] | 42.7 | 
25 | CNC(c1ccccc1)c1cc(-c2cnc3[nH]cc(C)c3c2)cc2c1COCC2 (single isomer, unassigned) [Compound Z234-1] | 154 | 
26 | Cc1c[nH]c2ncc(-c3cc4c(c(C5CC6(CC6)CN5)c3)COCC4)cc12 (centres unmarked) [Compound Z240-1, 5-(8-(5-azaspiro[2.4]heptan-6-yl)isochroman-6-yl)-3-methyl-1H-pyrrolo[2,3-b]pyridine] |  | 770
27 | Cc1c[nH]c2ncc(-c3cc4c(c(N5CCC[C@@H]5CO)c3)COCC4)cc12 [Compound Z116-1, (R)-(1-(6-(3-methyl-1H-pyrrolo[2,3-b]pyridin-5-yl)isochroman-8-yl)pyrrolidin-2-yl)methanol] | 843 | 
28 | CC(=O)N1CCc2cc(-c3cnc4[nH]cc(C)c4c3)cc([C@H]3CCCN3)c2C1 (single isomer, unassigned) [Compound Z98-1] | 49.4 | 
29 | Cc1c[nH]c2ncc(-c3cc4c(c([C@@H]5CCCN5)c3)CN(C(=O)N3C5CCC3COC5)CC4)cc12 [Compound Z388, (3-oxa-8-azabicyclo[3.2.1]octan-8-yl)(6-(3-methyl-1H-pyrrolo[2,3-b]pyridin-5-yl)-8-((S)-pyrrolidin-2-yl)-3,4-dihydroisoquinolin-2(1H)-yl)methanone] |  | 43.1
30 | CC(C)c1c[nH]c2ncc(-c3cc([C@H]4CCCN4)c4cnccc4c3)cc12 (single isomer, unassigned) [Compound Z95-1] | 18.4 | 
31 | Cc1c[nH]c2ncc(-c3cc4c(c([C@H]5CCCN5)c3)COCC4)cc12 (single isomer, unassigned) [Compound Z97-1] | 120 | 
32 | CNC(c1ccccc1)c1cc(-c2cnc3[nH]cc(C)c3c2)cc2c1COCC2 (single isomer, unassigned) [Compound Z234-2] | > 1000 | 
33 | Cc1c[nH]c2ncc(-c3cc4c(c([C@@H]5COCCN5)c3)CN(C(=O)[C@](C)(O)C(F)(F)F)CC4)cc12 (single isomer, unassigned) [Compound Z309-1] | 0.58 | 
34 | Cc1c[nH]c2ncc(-c3cc4c(c(N5CCC[C@H]5CO)c3)COCC4)cc12 [Compound Z116-2, (S)-(1-(6-(3-methyl-1H-pyrrolo[2,3-b]pyridin-5-yl)isochroman-8-yl)pyrrolidin-2-yl)methanol] | > 1000 | 
